Measured values reported in patent publication US4686215A, “Pharmaceutical composition and method for treating tumors susceptible to 2-carbamoylaziridine” (priority 1976, dated 1987).

Tests used:
carcinosarcoma DS = details: known drugs, prior art; cited from earlier work
[1] = prior art compound; cited from earlier work
SA-45 = assay: action in rats with SA-45 at late stages of tumor development (17 days after implantation); format: in vivo, rat; details: group II; 10 animals; i.v. 1500 mg/kg, 17 days after tumor implantation
Experimental: (§1) Non-linear male rats with the starting weight 120-150 g were used in the experiments described hereinunder in Examples 1-4. All the animals were administered intravenously a single dose of the pharmaceutical composition in the form of the concentrated solution (10-30%) of the active principle in distilled water at a rate of 1500 mg/kg. The animals were decapitated on the 20th say from the day of the administration. All the animals received the usual laboratory ration.
The action of the pharmaceutical composition consisting of 30% solution of the active principle above formula where R is NH2, in distilled water was tested in rats with SA-45 at late stages of tumor development. The composition was administered 17 days after tumor implantation. The results of the experiment are presented in Table 4 where I--control animals, II--rats which were administered the pharmaceutical composition.

toxicity (LD50) = format: in vivo; details: compared with prior art
[2] = tested on: implanted mammary gland cancer (RMGC-1); assay: action on tumor growth in rats with implanted mammary gland cancer RMGC-1, early stage (24 hours after implantation); format: in vivo, rat; details: 10 animals
Experimental: as §1
The action of the pharmaceutical composition consisting of 30% solution of the active principle of the above formula where R is NHNH2, in distilled water on tumor growth was tested in rats with implanted mammary gland cancer (RMGC-1). The results of the experiments are presented in Table 1, where I--control animals, II--rats which were administered the pharmaceutical composition, III--rats which were administered the same composition against the background of 90 minutes' hyperglycemia. The animals of groups II and III were administered the composition 24 hours after tumor implantation.

implanted RMCC-1 = assay: action in rats with implanted RMCC-1 at late stage of tumor development (15 days after implantation); format: in vivo, rat; details: group II, i.v. 1500 mg/kg
Experimental: as §1
The action of the same pharmaceutical composition as in Example 1 was tested in rats with implanted RMCC-1 at late stage of tumor development. The pharmaceutical composition was administered 15 days after tumor implanatation, the average weight of the tumor being 35 g. The groups of the animals are designated as in Example 1. None of the controls survived till the day of decapitation (the 20th day after the administration of the pharmaceutical composition to group II).

implanted SA-45 = assay: action in rats with implanted SA-45 at early stages of tumor development (48 hours after implantation); format: in vivo, rat; details: group II; 10 animals; i.v. 1500 mg/kg, 48 hours after tumor implantation
Experimental: as §1
The action of the same pharmaceutical composition as in Example 1 was tested in rats with implanted SA-45 at early stages of tumor development. The pharmaceutical composition was administered 48 hours after tumor implantation. The results of the experiment are presented in Table 3, where I--control group, II--rats which were administered pharmaceutical composition.

[3] = group II, single i.v. dose 1500 mg/kg, 24 hours after tumor implantation, 20th day
[4] = group III, against the background of 90 minutes' hyperglycemia, i.v. 1500 mg/kg, 24 hours after implantation
[5] = 6 animals, 15 days after tumor implantation, average tumor weight 35 g

## N#CC1CN1C(N)=O (centres unmarked) [1-carbamoyl-2-cyano-aziridine]
Carcinosarcoma DS
  cure of rats with carcinosarcoma DS: 47.4%
[1]
  LD50: 1 250 mg/kg

## NC(=O)C1CN1 (centres unmarked) [2-carbamoylaziridine]
SA-45
  Complete disappearance of the tumor (animals): 6
  No effect (animals): 2
  Partial disappearance of the tumor (animals): 2
Toxicity (LD50)
  therapeutic index: considerably higher

## NNC(=O)C1CN1 (centres unmarked) [active principle where R is NHNH2]
[2]; [3]
  Complete disappearance of the tumor (animals): 8
  No effect (animals): 2
[2]; [4]
  Complete disappearance of the tumor (animals): 7
  No effect (animals): 1
  Partial disappearance of the tumor (animals): 2
Implanted RMCC-1; animals with partial disappearance of the tumor, 15 days after implantation
  Life time increased by: 50%
Implanted RMCC-1; [5]
  Complete disappearance of the tumor (animals): 3
  Partial disappearance of the tumor (animals): 3
Implanted SA-45
  Complete disappearance of the tumor (animals): 3
  No effect (animals): 4
  Partial disappearance of the tumor (animals): 3
